One block for each compound: values may come before it.
System: K24384-001-R-PDC complex spheroids, viability
Test: Anticancer human tumor K24384-001-R-PDC patient-derived pancreatic adenocarcinoma cell line growth inhibition [GQUAD]
Conditions: for IC50: curve of first compound; for viability, T/C: stronger effect = lower value
Outline: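 Tumor cells were grown as complex spheroids with HUVEC endothelial cells and mesenchymal stem cells as stroma. G-quadruplex stabilizers were combined with targeted agents over half-log dilutions from near the clinical Cmax, or from 10 microM.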

[1] = second compound 0.0316 µM, first compound 0.0316 µM
[2] = second compound 0.0316 µM, first compound 0.1 µM
[3] = second compound 0.0316 µM, first compound 0.316 µM
[4] = second compound 0.0316 µM, first compound 1 µM
[5] = second compound 0.0316 µM, first compound 3.16 µM
[6] = second compound 0.0316 µM, first compound 10 µM
[7] = second compound 0.1 µM, first compound 0.0316 µM
[8] = second compound 0.1 µM, first compound 0.1 µM
[9] = second compound 0.1 µM, first compound 0.316 µM
[10] = second compound 0.1 µM, first compound 1 µM
[11] = second compound 0.1 µM, first compound 3.16 µM
[12] = second compound 0.1 µM, first compound 10 µM
[13] = second compound 0.316 µM, first compound 0.0316 µM
[14] = second compound 0.316 µM, first compound 0.1 µM
[15] = second compound 0.316 µM, first compound 0.316 µM
[16] = second compound 0.316 µM, first compound 1 µM
[17] = second compound 0.316 µM, first compound 3.16 µM
[18] = second compound 0.316 µM, first compound 10 µM
[19] = second compound 1 µM, first compound 0.0316 µM
[20] = second compound 1 µM, first compound 0.1 µM
[21] = second compound 1 µM, first compound 0.316 µM
[22] = second compound 1 µM, first compound 1 µM
[23] = second compound 1 µM, first compound 3.16 µM
[24] = second compound 1 µM, first compound 10 µM
[25] = second compound 3.16 µM, first compound 0.0316 µM
[26] = second compound 3.16 µM, first compound 0.1 µM
[27] = second compound 3.16 µM, first compound 0.316 µM
[28] = second compound 3.16 µM, first compound 1 µM
[29] = second compound 3.16 µM, first compound 3.16 µM
[30] = second compound 3.16 µM, first compound 10 µM
[31] = second compound 10 µM, first compound 0.0316 µM
[32] = second compound 10 µM, first compound 0.1 µM
[33] = second compound 10 µM, first compound 0.316 µM
[34] = second compound 10 µM, first compound 1 µM
[35] = second compound 10 µM, first compound 3.16 µM
[36] = second compound 10 µM, first compound 10 µM
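Further: spheroids exposed to compounds for seven days.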

Compound: CC(=O)O[C@H]1C(=O)[C@@]2(C)[C@H]([C@H](OC(=O)c3ccccc3)[C@]3(O)C[C@H](OC(=O)[C@H](O)[C@@H](NC(=O)c4ccccc4)c4ccccc4)C(C)=C1C3(C)C)[C@]1(OC(C)=O)CO[C@@H]1C[C@@H]2O + Cc1[nH]c2ccc(F)cc2c1-c1nc2c3cccnc3c3ncccc3c2[nH]1
- IC50 (second compound 0.0316 µM): < 0.0316 µM
- IC50 (second compound 0.1 µM): < 0.0316 µM
- IC50 (second compound 0.316 µM): < 0.0316 µM
- IC50 (second compound 1 µM): < 0.0316 µM
- IC50 (second compound 3.16 µM): < 0.0316 µM
- IC50 (second compound 10 µM): < 0.0316 µM
- viability, T/C [1]: 31.8%
- viability, T/C [2]: 25%
- viability, T/C [3]: 21.2%
- viability, T/C [4]: 16.8%
- viability, T/C [5]: 24.9%
- viability, T/C [6]: 28.7%
- viability, T/C [7]: 42.4%
- viability, T/C [8]: 23.7%
- viability, T/C [9]: 19.6%
- viability, T/C [10]: 18.7%
- viability, T/C [11]: 22.7%
- viability, T/C [12]: 27.1%
- viability, T/C [13]: 40%
- viability, T/C [14]: 28.3%
- viability, T/C [15]: 18.6%
- viability, T/C [16]: 22.3%
- viability, T/C [17]: 24.5%
- viability, T/C [18]: 29.1%
- viability, T/C [19]: 38.1%
- viability, T/C [20]: 28.2%
- viability, T/C [21]: 18.5%
- viability, T/C [22]: 26.1%
- viability, T/C [23]: 31.6%
- viability, T/C [24]: 31.4%
- viability, T/C [25]: 34.6%
- viability, T/C [26]: 18.9%
- viability, T/C [27]: 18.5%
- viability, T/C [28]: 16.7%
- viability, T/C [29]: 22.9%
- viability, T/C [30]: 18.1%
- viability, T/C [31]: 27.6%
- viability, T/C [32]: 23.2%
- viability, T/C [33]: 24.1%
- viability, T/C [34]: 15.4%
- viability, T/C [35]: 22.2%
- viability, T/C [36]: 23.1%

Compound: Cc1cccc(N(C)C(=O)C2C(O)CCN2c2nc(C)cc(C(F)(F)F)c2C#N)c1 (stereo not drawn) + CN(C)c1ccc(Nc2c3ccc(NC(=O)CCN4CCCC4)cc3nc3cc(NC(=O)CCN4CCCC4)ccc23)cc1
- IC50 (second compound 0.0316 µM): > 10 µM
- IC50 (second compound 0.1 µM): > 10 µM
- IC50 (second compound 0.316 µM): > 10 µM
- IC50 (second compound 1 µM): > 10 µM
- IC50 (second compound 3.16 µM): > 10 µM
- IC50 (second compound 10 µM): 3.01 µM
- viability, T/C [1]: 95.3%
- viability, T/C [2]: 87.9%
- viability, T/C [3]: 91.3%
- viability, T/C [4]: 90.6%
- viability, T/C [5]: 109%
- viability, T/C [6]: 111%
- viability, T/C [7]: 101%
- viability, T/C [8]: 110%
- viability, T/C [9]: 106%
- viability, T/C [10]: 102%
- viability, T/C [11]: 100%
- viability, T/C [12]: 97.6%
- viability, T/C [13]: 90.2%
- viability, T/C [14]: 81.9%
- viability, T/C [15]: 85.4%
- viability, T/C [16]: 87.7%
- viability, T/C [17]: 102%
- viability, T/C [18]: 95.3%
- viability, T/C [19]: 98%
- viability, T/C [20]: 83.6%
- viability, T/C [21]: 94.7%
- viability, T/C [22]: 107%
- viability, T/C [23]: 91.8%
- viability, T/C [24]: 94.3%
- viability, T/C [25]: 93%
- viability, T/C [26]: 86.2%
- viability, T/C [27]: 80.4%
- viability, T/C [28]: 104%
- viability, T/C [29]: 117%
- viability, T/C [30]: 74.4%
- viability, T/C [31]: 89.7%
- viability, T/C [32]: 79.8%
- viability, T/C [33]: 76.2%
- viability, T/C [34]: 61.8%
- viability, T/C [35]: 51.1%
- viability, T/C [36]: 31.9%

- IC50 (second compound 0.0316 µM): 8.05 µM
- IC50 (second compound 0.1 µM): 6.38 µM
- IC50 (second compound 0.316 µM): > 10 µM
- IC50 (second compound 1 µM): < 0.0316 µM
- IC50 (second compound 3.16 µM): < 0.0316 µM
- IC50 (second compound 10 µM): < 0.0316 µM
Compound: CCCS(=O)(=O)Nc1ccc(F)c(C(=O)c2c[nH]c3ncc(-c4ccc(Cl)cc4)cc23)c1F + Cc1cnc(CNC(=O)c2c(=O)c3ccc(N4CCCN(C)CC4)nc3n3c2sc2ccccc23)cn1
- viability, T/C [1]: 78%
- viability, T/C [2]: 84.4%
- viability, T/C [3]: 113%
- viability, T/C [4]: 93.8%
- viability, T/C [5]: 105%
- viability, T/C [6]: 39.5%
- viability, T/C [7]: 50.8%
- viability, T/C [8]: 84.2%
- viability, T/C [9]: 63.4%
- viability, T/C [10]: 90.9%
- viability, T/C [11]: 90.6%
- viability, T/C [12]: 33.5%
- viability, T/C [13]: 48.5%
- viability, T/C [14]: 56.8%
- viability, T/C [15]: 62%
- viability, T/C [16]: 64.8%
- viability, T/C [17]: 65.9%
- viability, T/C [18]: 31.1%
- viability, T/C [19]: 37.2%
- viability, T/C [20]: 36%
- viability, T/C [21]: 33.6%
- viability, T/C [22]: 48.3%
- viability, T/C [23]: 60.2%
- viability, T/C [24]: 29%
- viability, T/C [25]: 39.4%
- viability, T/C [26]: 35.2%
- viability, T/C [27]: 37.1%
- viability, T/C [28]: 34.6%
- viability, T/C [29]: 39.5%
- viability, T/C [30]: 16.2%
- viability, T/C [31]: 0.22%
- viability, T/C [32]: 0.41%
- viability, T/C [33]: 0.78%
- viability, T/C [34]: 0.33%
- viability, T/C [35]: 0.23%
- viability, T/C [36]: 0.18%

Compound: COc1cc(C2c3cc4c(cc3C(OC3OC5COC(C)OC5C(O)C3O)C3COC(=O)C23)OCO4)cc(OC)c1O (stereo not drawn) + Cc1[nH]c2ccc(F)cc2c1-c1nc2c3cccnc3c3ncccc3c2[nH]1
- IC50 (second compound 0.0316 µM): 3 µM
- IC50 (second compound 0.1 µM): 1.32 µM
- IC50 (second compound 0.316 µM): 1.94 µM
- IC50 (second compound 1 µM): 2.78 µM
- IC50 (second compound 3.16 µM): 1.86 µM
- IC50 (second compound 10 µM): 0.688 µM
- viability, T/C [1]: 104%
- viability, T/C [2]: 96%
- viability, T/C [3]: 73.3%
- viability, T/C [4]: 71%
- viability, T/C [5]: 47.1%
- viability, T/C [6]: 33.5%
- viability, T/C [7]: 90%
- viability, T/C [8]: 94.7%
- viability, T/C [9]: 68.8%
- viability, T/C [10]: 57%
- viability, T/C [11]: 37.5%
- viability, T/C [12]: 35.9%
- viability, T/C [13]: 113%
- viability, T/C [14]: 99.5%
- viability, T/C [15]: 75.6%
- viability, T/C [16]: 59.3%
- viability, T/C [17]: 44.1%
- viability, T/C [18]: 35.2%
- viability, T/C [19]: 85%
- viability, T/C [20]: 80.7%
- viability, T/C [21]: 68.7%
- viability, T/C [22]: 67.6%
- viability, T/C [23]: 44.5%
- viability, T/C [24]: 38.1%
- viability, T/C [25]: 83.2%
- viability, T/C [26]: 71.8%
- viability, T/C [27]: 67.6%
- viability, T/C [28]: 69.6%
- viability, T/C [29]: 33.2%
- viability, T/C [30]: 30.8%
- viability, T/C [31]: 55.4%
- viability, T/C [32]: 59.5%
- viability, T/C [33]: 53.1%
- viability, T/C [34]: 47.7%
- viability, T/C [35]: 24.5%
- viability, T/C [36]: 19.8%
